Active and inactive are the calls of the source. The calls are words filed in the database; no cut-off is given here.
Tests used:
[1] = system: MV4-11; experiment: Antiproliferative activity against human MV4-11 cells assessed as inhibition of cell proliferation incubated for 72 hrs by CCK-8 assay; type: functional, cell-based
[2] = Toxicity in BALB/C nude mouse xenografted with human […] cells assessed as change in body weight at 30 mg/kg, IG administered once daily for 18 days; type: organism-based; settings: in vivo, po, 432 h, time 18 day
[3] = Toxicity in BALB/C nude mouse xenografted with human […] cells assessed as animal death at 30 mg/kg, IG administered once daily for 18 days; type: organism-based; settings: in vivo, po, 432 h, time 18 day
[4] = system: MV4-11; experiment: Antitumor activity against human MV4-11 cells xenografted in BALB/C nude mouse model assessed as tumor growth inhibition at 30 mg/kg, IG administered once daily for 18 days relative to control; type: functional; settings: MV4-11, po, 432 h, time 18 day, read-out: TGI
[5] = biological target: T1, Tyrosine-protein phosphatase non-receptor type 11 (Homo sapiens, UniProt Q06124); experiment: Inhibition of SHP2 (unknown origin)
T1 sequence (Q06124 whole entry): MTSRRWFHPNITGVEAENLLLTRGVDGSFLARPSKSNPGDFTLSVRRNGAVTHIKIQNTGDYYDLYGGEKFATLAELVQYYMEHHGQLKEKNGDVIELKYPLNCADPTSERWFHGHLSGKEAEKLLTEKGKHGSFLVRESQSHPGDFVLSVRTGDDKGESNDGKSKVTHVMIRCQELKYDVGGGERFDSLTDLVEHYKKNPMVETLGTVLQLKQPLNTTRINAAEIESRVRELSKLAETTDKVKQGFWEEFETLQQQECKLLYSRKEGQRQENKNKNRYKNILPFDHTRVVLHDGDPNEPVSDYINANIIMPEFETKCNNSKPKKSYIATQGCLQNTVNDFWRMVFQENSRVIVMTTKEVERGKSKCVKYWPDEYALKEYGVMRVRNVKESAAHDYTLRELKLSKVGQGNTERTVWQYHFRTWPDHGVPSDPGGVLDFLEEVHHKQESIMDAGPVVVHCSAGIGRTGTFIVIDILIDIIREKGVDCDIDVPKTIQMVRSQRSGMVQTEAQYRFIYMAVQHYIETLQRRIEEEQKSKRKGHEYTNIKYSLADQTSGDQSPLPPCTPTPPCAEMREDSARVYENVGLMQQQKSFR

[6] = biological target: T2, Tyrosine-protein phosphatase non-receptor type 11 (Homo sapiens) (UniProt Q06124); experiment: Inhibition of SHP2 in human MV4-11 cells assessed as downregulation of phosphorylated ERK level incubated for 12 hrs by Western blot analysis; type: cell-based; settings: dose 0-5 µM
T2 sequence (whole entry): T1 sequence (Q06124 whole entry)

[7] = Tmax in male Sprague-Dawley rat at 2 mg/kg, iv measured for 24 hrs by LC/MS analysis; type: ADME, organism-based; settings: in vivo
[8] = Cmax in male Sprague-Dawley rat at 10 mg/kg, po measured for 24 hrs by LC/MS analysis; type: ADME, organism-based; settings: in vivo
[9] = system: MV4-11; experiment: Antitumor activity against human MV4-11 cells xenografted in BALB/C nude mouse model assessed as reduction in Ki67 expression administered intragastrically as once daily dose for 18 days by immunohistochemistry staining based analysis; type: functional, cell-based; settings: dose 10-30 mg/kg, route ig, time 18.0 day
[10] = AUC (0 to infinity) in male Sprague-Dawley rat at 10 mg/kg, po measured for 24 hrs by LC/MS analysis; type: ADME, organism-based; settings: in vivo
[11] = Oral bioavailability in male Sprague-Dawley rat at 10 mg/kg measured for 24 hrs by LC/MS analysis; type: ADME, organism-based; settings: in vivo
[12] = Apparent clearance during terminal phase in male Sprague-Dawley rat at 2 mg/kg, iv measured for 24 hrs by LC/MS analysis; type: ADME, organism-based; settings: in vivo
[13] = system: MV4-11; experiment: Antitumor immunity against human MV4-11 cells xenografted in BALB/C nude mouse model assessed as reduction in F4/80+/CD206+ M2-like tumor associated macrophages at 10 to 30 mg/kg, IG administered once daily for 18 days by immunofluorescence staining […]; type: functional, organism-based; settings: dose 10-30 mg/kg, time 18.0 day
[14] = Toxicity in BALB/C nude mouse xenografted with human […] cells assessed as animal death at 10 to 30 mg/kg, IG administered once daily for 18 days; type: organism-based; settings: in vivo, po, 432 h, dose 10-30 mg/kg, time 18 day
[15] = Half life in male Sprague-Dawley rat at 10 mg/kg, po measured for 24 hrs by LC/MS analysis; type: ADME, organism-based; settings: in vivo
[16] = Tmax in male Sprague-Dawley rat at 10 mg/kg, po measured for 24 hrs by LC/MS analysis; type: ADME, organism-based; settings: in vivo
[17] = system: MV4-11; experiment: Antitumor immunity against human MV4-11 cells xenografted in BALB/C nude mouse model assessed as reduction of IL-10 expression level in tumor at 30 mg/kg, IG administered once daily for 18 days by ELISA; type: functional, organism-based; settings: time 18.0 day
[18] = biological target: T3, Tyrosine-protein phosphatase non-receptor type 1 (Homo sapiens) (UniProt P18031); experiment: Inhibition of PTP1B (unknown origin) using DiFMUP as substrate at 10 uM preincubated with compound for 60 mins followed by substrate addition and measured after 30 mins by fluorescence based microplate reader analysis relative to control; settings: time 90.0 min
T3 sequence (whole entry): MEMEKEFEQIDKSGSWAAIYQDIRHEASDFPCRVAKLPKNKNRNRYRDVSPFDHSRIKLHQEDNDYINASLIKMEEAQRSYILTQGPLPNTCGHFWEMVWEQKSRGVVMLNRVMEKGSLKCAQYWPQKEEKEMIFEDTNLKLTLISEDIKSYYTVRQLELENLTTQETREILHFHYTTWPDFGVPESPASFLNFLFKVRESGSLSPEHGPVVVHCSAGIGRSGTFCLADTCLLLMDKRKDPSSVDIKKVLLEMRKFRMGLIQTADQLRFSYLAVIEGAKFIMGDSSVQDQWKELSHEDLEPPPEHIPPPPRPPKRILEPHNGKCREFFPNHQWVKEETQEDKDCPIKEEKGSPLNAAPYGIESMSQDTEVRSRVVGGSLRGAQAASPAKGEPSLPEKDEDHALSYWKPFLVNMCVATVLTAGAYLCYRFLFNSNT

[19] = Apparent volume of distribution during terminal phase in male Sprague-Dawley rat at 2 mg/kg, iv measured for 24 hrs by LC/MS analysis; type: ADME, organism-based; settings: in vivo
[20] = biological target: Tyrosine-protein phosphatase non-receptor type 6 (Homo sapiens) (UniProt P29350); experiment: Inhibition of SHP1 (unknown origin) using DiFMUP as substrate at 10 uM preincubated with compound for 60 mins followed by substrate addition and measured after 30 mins by fluorescence based microplate reader analysis relative to control; settings: time 90.0 min
Sequence of Tyrosine-protein phosphatase non-receptor type 6 (Homo sapiens) (P29350 whole entry): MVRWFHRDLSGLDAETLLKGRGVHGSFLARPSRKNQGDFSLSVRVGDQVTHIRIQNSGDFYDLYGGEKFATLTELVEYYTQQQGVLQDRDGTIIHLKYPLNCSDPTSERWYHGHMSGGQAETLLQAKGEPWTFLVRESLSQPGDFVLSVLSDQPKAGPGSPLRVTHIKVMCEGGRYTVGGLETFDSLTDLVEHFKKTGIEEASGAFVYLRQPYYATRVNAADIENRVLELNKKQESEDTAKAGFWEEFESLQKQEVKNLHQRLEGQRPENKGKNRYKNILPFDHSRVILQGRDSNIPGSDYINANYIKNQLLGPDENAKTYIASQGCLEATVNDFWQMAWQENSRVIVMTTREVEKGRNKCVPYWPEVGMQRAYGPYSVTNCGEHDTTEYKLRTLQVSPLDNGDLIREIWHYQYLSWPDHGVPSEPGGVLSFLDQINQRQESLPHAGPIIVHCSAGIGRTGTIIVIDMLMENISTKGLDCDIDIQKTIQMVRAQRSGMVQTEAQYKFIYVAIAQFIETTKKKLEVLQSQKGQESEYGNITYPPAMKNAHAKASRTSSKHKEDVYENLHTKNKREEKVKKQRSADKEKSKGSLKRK

[21] = AUC (0 to infinity) in male Sprague-Dawley rat at 2 mg/kg, iv measured for 24 hrs by LC/MS analysis; type: ADME, organism-based; settings: in vivo
[22] = biological target: T2, Tyrosine-protein phosphatase non-receptor type 11 (Homo sapiens); experiment: Inhibition of SHP2 in human MV4-11 cells assessed as downregulation of phosphorylated Akt level incubated for 12 hrs by Western blot analysis; type: cell-based; settings: dose 0-5 µM
[23] = system: MV4-11; experiment: Antitumor immunity against human MV4-11 cells xenografted in BALB/C nude mouse model assessed as suppression of CD206+/Ly6C+ M2-like tumor associated macrophages in lymphocytes at 10 to 30 mg/kg, IG administered once daily for 18 days by flow cytometric analysis; type: functional, organism-based; settings: dose 10-30 mg/kg, time 18.0 day
[24] = system: MV4-11; experiment: Antitumor activity against human MV4-11 cells xenografted in BALB/C nude mouse model assessed as appearance of shrunken nuclei in tumor at 10 to 30 mg/kg, IG administered once a day for 18 days by H and E staining based analysis; type: functional, organism-based; settings: dose 10-30 mg/kg, time 18.0 day
[25] = system: MV4-11; experiment: Antitumor activity against human MV4-11 cells xenografted in BALB/C nude mouse model assessed as appearance of pyknotic nuclei in tumor at 10 to 30 mg/kg, IG administered once a day for 18 days by H and E staining based analysis; type: functional, organism-based; settings: dose 10-30 mg/kg, time 18.0 day
[26] = Half life in male Sprague-Dawley rat at 2 mg/kg, iv measured for 24 hrs by LC/MS analysis; type: ADME, organism-based; settings: in vivo
[27] = system: MV4-11; experiment: Antitumor activity against human MV4-11 cells xenografted in BALB/C nude mouse model assessed as tumor growth inhibition at 10 mg/kg, IG administered once daily for 18 days relative to control; type: functional; settings: MV4-11, po, 432 h, time 18 day, read-out: TGI
[28] = system: MV4-11; experiment: Antitumor activity against human MV4-11 cells xenografted in BALB/C nude mouse model assessed as suppression of tumor growth administered intragastrically as once daily dose for 18 days; type: functional, cell-based; settings: dose 10-30 mg/kg, route ig, time 18.0 day
[29] = system: MV4-11; experiment: Potency index, ratio of TNO155 IC50 to test compound IC50 for antiproliferative activity against human MV4-11 cells assessed as inhibition of cell proliferation incubated for 72 hrs by CCK-8 assay; type: functional
[30] = Toxicity in BALB/C nude mouse xenografted with human […] cells assessed as change in body weight at 10 to 30 mg/kg, IG administered once daily for 18 days; type: organism-based; settings: in vivo, po, 432 h, dose 10-30 mg/kg, time 18 day
[31] = biological target: T2, Tyrosine-protein phosphatase non-receptor type 11 (Homo sapiens); experiment: Inhibition of SHP2 PTP domain (unknown origin) using DiFMUP as substrate at 10 uM preincubated with compound for 60 mins followed by substrate addition and measured after 30 mins by fluorescence based microplate reader analysis relative to control; settings: time 90.0 min
[32] = biological target: T1, Tyrosine-protein phosphatase non-receptor type 11; experiment: Allosteric inhibition of N-terminal His-tagged human recombinant SHP2 extracted from Escherichia coli using DiFMUP as substrate preincubated with compound for 60 mins followed by substrate addition and measured after 30 mins by fluorescence based microplate reader analysis
[33] = Cmax in male Sprague-Dawley rat at 2 mg/kg, iv measured for 24 hrs by LC/MS analysis; type: ADME, organism-based; settings: in vivo

SMILES: C[C@@H]1OCC2(CCN(c3cnc(Sc4ccnc(N)c4Cl)c(N)n3)CC2)[C@@H]1N [BATOPROTAFIB]
- IC50 ([1]; mv4-11): 39 nM
- Activity [2]: Non-Toxic
- Activity [3]: Non-Toxic
- inhibition in vivo at 30 mg/kg [4]: 70.8%

SMILES: Cc1nc(N2CCC3(CC2)CO[C@@H](C)[C@H]3N)c(CO)nc1Sc1ccnc(N)c1Cl [VOCIPROTAFIB]
- IC50 [5]: 1.5 nM

SMILES: N[C@@H]1c2ccccc2CC12CCN(c1cnc(Sc3cccc(NC(=O)c4cnccc4O)c3Cl)cn1)CC2
- inhibition [6]: Dose-Dependent Effect
- Tmax [7]: 1.8 min
- Cmax [8]: 70.1 ng/mL
- Activity [9]: Dose-Dependent Effect
- AUC(0-inf) [10]: 762 ng·h/mL
- bioavailability [11]: 11.9%
- CLz/F [12]: 29 mL/min/kg
- Activity [13]: Active
- Activity [14]: Non-Toxic
- IC50 ([1]; Homo sapiens, MV4-11, 72 h): 3.5 nM
- half-life [15]: 4.66 h
- Tmax [16]: 3.24 h
- Activity [17]: Active
- inhibition [18]: 8.7%
- Vz/F [19]: 11.04 L/kg
- inhibition [20]: 29.3%
- AUC(0-inf) [21]: 1260 ng·h/mL
- inhibition [22]: Dose-Dependent Effect
- Activity [23]: Active
- Activity [24]: Active
- Activity [25]: Active
- half-life [26]: 4.26 h
- inhibition in vivo at 10 mg/kg [27]: 45.9%
- Activity [28]: Dose-Dependent Effect
- Ratio IC50 [29]: ~11
- Activity [30]: Non-Toxic
- inhibition in vivo at 30 mg/kg [4]: 69.5%
- inhibition [31]: 13.2%
- IC50 [32]: 0.13 nM
- Cmax [33]: 681 ng/mL

Reference: ChEMBL document CHEMBL5614460, “Discovery of novel substituted pyridine carboxamide derivatives as potent allosteric SHP2 inhibitors” (Eur J Med Chem, 2024)
